Source: ChEMBL document CHEMBL5352419, “Design, synthesis, and biological evaluation of tetrahydroquinoline amphiphiles as membrane-targeting antimicrobials against pathogenic bacteria and fungi” (Eur J Med Chem, 2022)
Values after ≈ are worked out from the molar mass of the structure shown.

Key:
Candida albicans [1] = assay: Antimicrobial activity against Candida albicans CMCC98001 assessed as fungal growth inhibition incubated for 48 hrs by Sabouraud Dextrose broth based dilution assay; format: functional
Staphylococcus aureus [2] = assay: Antimicrobial activity against methicillin-resistant Staphylococcus aureus NCTC10442 assessed as bacterial growth inhibition incubated for 24 hrs by Muller Hinton broth based dilution assay; format: functional
Staphylococcus aureus [3] = assay: Antimicrobial activity against Staphylococcus aureus ATCC29213 assessed as bacterial growth inhibition incubated for 24 hrs by Muller Hinton broth based dilution assay; format: functional
[4] = Hemolytic activity in rabbit RBC incubated for 1 hr by absorbance based microplate reader assay; format: toxicity, cell-based, Oryctolagus cuniculus, Erythrocyte; conditions: rabbit red blood cells (erythrocytes)
Staphylococcus aureus [5] = assay: Antimicrobial activity against methicillin-resistant Staphylococcus aureus N315 assessed as bacterial growth inhibition incubated for 24 hrs by Muller Hinton broth based dilution assay; format: functional
Candida albicans [6] = assay: Antimicrobial activity against Candida albicans ATCC10231 assessed as fungal growth inhibition incubated for 48 hrs by Sabouraud Dextrose broth based dilution assay; format: functional
Escherichia coli = assay: Antimicrobial activity against Escherichia coli ATCC25922 assessed as bacterial growth inhibition incubated for 24 hrs by Muller Hinton broth based dilution assay; format: functional

SMILES | MIC (Candida albicans [1]) | MIC (Staphylococcus aureus [2]) | MIC (Staphylococcus aureus [3]) | HC50 at 1 h [4] | MIC (Staphylococcus aureus [5]) | MIC (Candida albicans [6]) | MIC (Escherichia coli)
CC(C)=CCC/C(C)=C/CN1CCCc2cc(O)ccc21 | 25 µg/mL (≈ 87.6 µM) | 12.5 µg/mL (≈ 43.8 µM) | 12.5 µg/mL (≈ 43.8 µM) | > 200 µg/mL | 12.5 µg/mL (≈ 43.8 µM) | 50 µg/mL (≈ 175 µM) | > 50 µg/mL
CC(C)=CCN1CCCc2cc(OCCCCCCCCCCCCBr)ccc21 | > 50 µg/mL | > 50 µg/mL | > 50 µg/mL | > 200 µg/mL | > 50 µg/mL | > 50 µg/mL | > 50 µg/mL
Oc1ccc2c(c1)CCCN2 | > 50 µg/mL | > 50 µg/mL | > 50 µg/mL | > 200 µg/mL | > 50 µg/mL | > 50 µg/mL | > 50 µg/mL
CCCCCNCCCCOc1ccc2c(c1)CCCN2CC=C(C)C | > 50 µg/mL | 6.25 µg/mL (≈ 17.4 µM) | 6.25 µg/mL (≈ 17.4 µM) | 146 µg/mL | 6.25 µg/mL (≈ 17.4 µM) | > 50 µg/mL | 50 µg/mL (≈ 139 µM)
CCCCCCCN1CCCc2cc(OCC(=O)N[C@@H](CCCNC(=N)N)C(=O)N[C@@H](CCCNC(=N)N)C(=O)OC)ccc21 | 50 µg/mL (≈ 79.1 µM) | 3.12 µg/mL (≈ 4.95 µM) | 6.25 µg/mL (≈ 9.89 µM) | > 200 µg/mL | 3.12 µg/mL (≈ 4.95 µM) | > 50 µg/mL | 50 µg/mL (≈ 79.1 µM)
CC(C)=CCN1CCCc2cc(OCCCCBr)ccc21 | > 50 µg/mL | 25 µg/mL (≈ 71 µM) | 25 µg/mL (≈ 71 µM) | > 200 µg/mL | 12.5 µg/mL (≈ 35.5 µM) | > 50 µg/mL | > 50 µg/mL
CCCCCN1CCCc2cc(OCC(=O)N[C@@H](CCCNC(=N)N)C(=O)OC)ccc21 | > 50 µg/mL | 25 µg/mL (≈ 55.9 µM) | 50 µg/mL (≈ 112 µM) | > 200 µg/mL | 25 µg/mL (≈ 55.9 µM) | > 50 µg/mL | > 50 µg/mL
CC(C)=CCN1CCCc2cc(OCCCCCCCCCCBr)ccc21 | 12.5 µg/mL (≈ 28.6 µM) | 3.12 µg/mL (≈ 7.16 µM) | 3.12 µg/mL (≈ 7.16 µM) | > 200 µg/mL | 3.12 µg/mL (≈ 7.16 µM) | 12.5 µg/mL (≈ 28.6 µM) | 25 µg/mL (≈ 57.3 µM)
CC(C)=CCN1CCCc2cc(OCCCCCCBr)ccc21 | 50 µg/mL (≈ 131 µM) | 25 µg/mL (≈ 65.7 µM) | 50 µg/mL (≈ 131 µM) | > 200 µg/mL | 25 µg/mL (≈ 65.7 µM) | 50 µg/mL (≈ 131 µM) | > 50 µg/mL
CC(C)=CCN1CCCc2cc(OCCCCNCCN(CCN)CCN)ccc21 | 50 µg/mL (≈ 120 µM) | 6.25 µg/mL (≈ 15 µM) | 12.5 µg/mL (≈ 29.9 µM) | > 200 µg/mL | 6.25 µg/mL (≈ 15 µM) | > 50 µg/mL | 50 µg/mL (≈ 120 µM)
CCCN1CCCc2cc(O)ccc21 | > 50 µg/mL | > 50 µg/mL | > 50 µg/mL | > 200 µg/mL | > 50 µg/mL | > 50 µg/mL | > 50 µg/mL
CC(C)=CCN1CCCc2cc(OCCCCCCCCBr)ccc21 | 50 µg/mL (≈ 122 µM) | > 50 µg/mL | > 50 µg/mL | > 200 µg/mL | > 50 µg/mL | 50 µg/mL (≈ 122 µM) | > 50 µg/mL
CC(C)=CCN1CCCc2cc(OCCCNC(=N)N)ccc21 | > 50 µg/mL | 6.25 µg/mL (≈ 19.8 µM) | 6.25 µg/mL (≈ 19.8 µM) | > 200 µg/mL | 6.25 µg/mL (≈ 19.8 µM) | > 50 µg/mL | 50 µg/mL (≈ 158 µM)
CC(C)=CCN1CCCc2cc(O)ccc21 | > 50 µg/mL | 50 µg/mL (≈ 230 µM) | 50 µg/mL (≈ 230 µM) | > 200 µg/mL | 50 µg/mL (≈ 230 µM) | > 50 µg/mL | > 50 µg/mL
CCCCCCCN1CCCc2cc(O)ccc21 | > 50 µg/mL | 12.5 µg/mL (≈ 50.5 µM) | 12.5 µg/mL (≈ 50.5 µM) | > 200 µg/mL | 12.5 µg/mL (≈ 50.5 µM) | > 50 µg/mL | > 50 µg/mL
CC(C)=CCN1CCCc2cc(OCCCCN(C)C)ccc21 | > 50 µg/mL | 25 µg/mL (≈ 79 µM) | 25 µg/mL (≈ 79 µM) | > 200 µg/mL | 25 µg/mL (≈ 79 µM) | > 50 µg/mL | 25 µg/mL (≈ 79 µM)
CC(C)=CCC/C(C)=C/CN1CCCc2cc(OCCCCCCCCNC(=N)N)ccc21 | 0.78 µg/mL (≈ 1.72 µM) | 1.56 µg/mL (≈ 3.43 µM) | 3.12 µg/mL (≈ 6.87 µM) | > 200 µg/mL | 3.12 µg/mL (≈ 6.87 µM) | 0.78 µg/mL (≈ 1.72 µM) | 25 µg/mL (≈ 55 µM)
CC(C)=CCN1CCCc2cc(OCCCCN3CCCCC3)ccc21 | > 50 µg/mL | > 50 µg/mL | > 50 µg/mL | > 200 µg/mL | > 50 µg/mL | > 50 µg/mL | > 50 µg/mL
CCCCCCCCCN1CCCc2cc(OCCCCBr)ccc21 | 50 µg/mL (≈ 122 µM) | 12.5 µg/mL (≈ 30.5 µM) | 6.25 µg/mL (≈ 15.2 µM) | > 200 µg/mL | 12.5 µg/mL (≈ 30.5 µM) | 50 µg/mL (≈ 122 µM) | 25 µg/mL (≈ 60.9 µM)
CCCCCCCN1CCCc2cc(OCCCCBr)ccc21 | 12.5 µg/mL (≈ 32.7 µM) | 6.25 µg/mL (≈ 16.3 µM) | 12.5 µg/mL (≈ 32.7 µM) | > 200 µg/mL | 6.25 µg/mL (≈ 16.3 µM) | 25 µg/mL (≈ 65.4 µM) | 25 µg/mL (≈ 65.4 µM)
CNCCCCOc1ccc2c(c1)CCCN2CC=C(C)C | 50 µg/mL (≈ 165 µM) | 12.5 µg/mL (≈ 41.3 µM) | 25 µg/mL (≈ 82.7 µM) | > 200 µg/mL | 6.25 µg/mL (≈ 20.7 µM) | 50 µg/mL (≈ 165 µM) | 25 µg/mL (≈ 82.7 µM)
